Structures can show the parent of a compound that is named as a salt.
Legend:
[1] = system: bicalutamide resistant human prostate cancer cell line established from LNCaP.FGC (LNCaP-Bic); assay: Growth inhibition of LNCaP-Bic cells, WST-8 assay; assay type: cell-based; settings: 120 h, 5 days with test compound
Summary of the method: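 Cells in RPMI 1640 with 10% FBS preincubated 24 h at 37 °C, 5% CO2, then exposed to compound for 5 days. WST-8 read-out, OD 450 minus 630 nm after cell-free blank subtraction; IC50 (nM) derived against untreated control growth.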

[2] = system: human prostate (carcinoma) cell line (LNCaP.FGC); assay: Growth inhibition of LNCaP.FGC cells, WST-8 assay; assay type: cell-based; settings: 120 h, 5 days with test compound
Summary of the method: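 Bicalutamide-resistant LNCaP-Bic cells (and parental LNCaP.FGC) in RPMI 1640 + 10% FBS were preincubated 24 h at 37 °C, 5% CO2, then exposed to compound for 5 days. Growth read by WST-8, OD 450 nm minus 630 nm, cell-free blank subtracted; IC50 (nM) taken relative to untreated control.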

[3] = system: human prostate (adenocarcinoma) cell line (VcaP); assay: Growth inhibition of VcaP cells, WST-8 assay; assay type: cell-based; settings: 120 h, 5 days with test compound
Summary of the method: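 Cells in RPMI 1640 with 10% FBS were preincubated 24 h at 37° C., 5% CO2, then exposed to compound for 5 days. Growth read by WST-8 at 450 nm minus 630 nm, cell-free background subtracted. IC50 derived relative to untreated control.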

[4] = system: human prostate (carcinoma) cell line (DU 145); assay: Growth inhibition of DU 145 cells, WST-8 assay; assay type: cell-based; settings: 120 h, 5 days with test compound
Summary of the method: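 DU 145 cells in RPMI 1640 with 10% FBS were pre-incubated 24 h at 37° C, 5% CO2, then exposed to compound for 5 days. Growth was read by WST-8 reduction (OD 450 minus 630 nm, cell-free blank subtracted). IC50 was taken relative to untreated control.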

[5] = system: human prostate (adenocarcinoma) cell line (PC-3); assay: Growth inhibition of PC-3 cells, WST-8 assay; assay type: cell-based; settings: 120 h, 5 days with test compound
Summary of the method: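 Cells seeded in RPMI 1640 with 10% FBS, grown 24 h at 37 °C, 5% CO2, then exposed to compound for 5 days. WST-8 read-out, OD 450 nm minus 630 nm reference, cell-free blank subtracted. IC50 (nM) from growth relative to compound-free control.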

[6] = system: human breast cancer cell line (MDA-MB-468); assay: Growth inhibition of MDA-MB-468 cells, sulforhodamine B method; assay type: cell-based; settings: 120 h, 5 days with test compound
Summary of the method: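 MDA-MB-468 cells in DMEM/10% FBS were incubated 24 h at 37° C., then exposed to compound for 5 days. After TCA fixation and sulforhodamine B staining, OD 492 nm minus 690 nm was read with cell-free background subtracted. IC50 was set against untreated control.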

[7] = system: human hepatic cancer cell line (HuH-7); assay: Growth inhibition of HuH-7 cells, sulforhodamine B method; assay type: cell-based; settings: Homo sapiens, 120 h, 5 days with test compound
Method: Growth inhibition of a human breast cancer cell line (MDA-MB-468) was determined by the sulforhodamine B method based on the method of Skehan P. et al. (J Natl Cancer Inst. 1990 Jul. 4; 82(13): 1107-12). In the study, MDA-MB-468 cells were seeded on DMEM medium containing 10% fetal bovine serum in a 96-well microplate. After 24-h incubation at 37° C. in the presence of 5% carbon dioxide, the test compound was added and the cells were incubated for another 5 days. After incubation, a trichloroacetic acid solution was added to yield the final concentration of 10% and the cells were left to stand at 4° C. for 1 hour to fix. Then, the cells were washed with water to remove the medium and trichloroacetic acid and dried in the air. The dried cells were stored at 4° C. until they were stained with sulforhodamine B. To each well, 1% acetic acid solution containing 0.4% sulforhodamine B was added and left to stand for 20 to 30 minutes at room temperature. After discarding the supernatant, each well was washed with 1% acetic acid solution, and 10 mM Tris([…]) solution was added while stirring to elute the dye taken into the cells. Then, the optical density was determined at the measurement wavelength of 492 nm and the reference wavelength of 690 nm, and the difference was calculated. The cell growth activity in each well was defined as the value determined by subtracting the OD in the control well not containing cells (the difference in absorbance between 492 nm and 690 nm) from that in the test well.
The 50% inhibitory concentration (IC50 (nM)) of the test compound was determined by comparing the cell growth activity in the well containing the test compound with that of the control not containing the test compound.
The growth inhibition on a human hepatic cancer cell line (HuH-7) was also determined by the above method.

[8] = system: Human prostate cancer cells (LNCaP-Bic); assay: Antitumor effect on LNCaP-Bic tumors transplanted in nude mice, tumor weight; assay type: in vivo; settings: Mus musculus, po, 336 h, 10 mg/kg/day orally, once daily, 14 consecutive days, read-out: T/C(%) (10 mg/kg/day), tumor weight treated/control
Method: (§1) Human prostate cancer cells (LNCaP-Bic) were transplanted in nude mice (6 males/group) and the inhibitory effect of the invention on their growth was examined. In the study, the tumor cell suspension with matrigel was inoculated at 0.12 mL/body (2.4×10^6 cells/body) into the subcutaneous space of the right axillary region to prepare tumor bearing mice. When the tumor diameter became 5 mm or more, the animals were allocated to groups based on the tumor volume. The test compound was administered orally as a suspension in 5% gum arabic, once daily, for 14 consecutive days. The control group received 5% gum arabic. Tumor volumes were measured on the following day of the last administration. Tumors were removed and the wet weight of the tumor was measured using an electronic balance. The ratio of the tumor weight in the treated group to that in the control group (T/C %) was calculated as the index for the effect. T/C %=(Mean tumor weight in the treatment group/Mean tumor weight in the control group)×100.

PSA = assay: Plasma levels of PSA in LNCaP-Bic tumor bearing nude mice, ELISA; assay type: in vivo; settings: Mus musculus, po, 336 h; 10 mg/kg/day orally, once daily, 14 consecutive days; plasma PSA by ELISA; read-out: T/C(%) (10 mg/kg/day), plasma levels of PSA treated/control
Method: as §1
The heparinized blood was collected from the postcava under diethylether anesthesia. The plasma levels of PSA were measured using ELISA. The ratio of the plasma levels of PSA in the treated group to that in the control group (T/C %) was calculated as the index for the effect. T/C %=(Mean plasma levels of PSA in the treatment group/Mean plasma levels of PSA in the control group)×100.

Row | Structure (SMILES) | IC50 [1] [nM] | IC50 [2] [nM] | IC50 [3] [nM] | IC50 [4] [nM] | IC50 [5] [nM] | IC50 [6] [µM] | IC50 [7] [µM] | melting point [°C] | response vs control in vivo at 10 mg/kg [8] [%] | response vs control in vivo at 10 mg/kg (PSA) [%]
1 | Cc1ccc(COc2ccc(Oc3c(C)cc(/C=C/C(=O)N4CCN(Cc5ccc(CCOc6ccc(C)cc6)cc5)CC4)cc3Cl)nc2)cc1.Cl [Example 432, (E)-3-[3-Chloro-5-methyl-4-({5-[(4-methylbenzyl)oxy]pyridin-2-yl}oxy)phenyl]-1-(4-{4-[2-(4-methylphenoxy)ethyl]benzyl}piperazin-1-yl)prop-2-en-1-one hydrochloride] | < 10 | < 10 | < 10 | < 10 | < 10 | < 0.01 | < 0.01 | 232.1 to 232.7 | < 50 | < 50
2 | Cc1cc(/C=C/C(=O)N2CCN(Cc3ccc(CCOc4ccc(F)cc4)cc3)CC2)cc(Cl)c1Oc1ccc(OCc2ccc(F)cc2)cn1.Cl [Example 435, (E)-3-[3-Chloro-4-({5-[(4-fluorobenzyl)oxy]pyridin-2-yl}oxy)-5-methylphenyl]-1-(4-{4-[2-(4-fluorophenoxy)ethyl]benzyl}piperazin-1-yl)prop-2-en-1-one hydrochloride] | < 10 | < 10 | < 10 | < 10 | < 10 | < 0.01 | < 0.01 | 214.3 to 216.2 | < 50 | < 50
3 | Cc1cc(/C=C/C(=O)N2CCN(Cc3ccc(CCOc4ccc(C(C)C)cc4)cc3)CC2)cc(Cl)c1Oc1ccc(OCc2ccc(F)cc2)cn1 [Example 438, (E)-3-[3-Chloro-4-({5-[(4-fluorobenzyl)oxy]pyridin-2-yl}oxy)-5-methylphenyl]-1-[4-(4-{2-[4-(propan-2-yl)phenoxy]ethyl}benzyl)piperazin-1-yl]prop-2-en-1-one hydrochloride] | < 10 | < 10 | < 10 | < 10 | < 10 | < 0.01 | < 0.01 |  | < 50 | < 50
4 | COc1ccc(OCCc2ccc(CN3CCN(C(=O)/C=C/c4cc(C)c(Oc5ccc(OCc6ccc(C)cc6)cn5)c(Cl)c4)CC3)cc2)cc1.Cl [Example 440, (E)-3-[3-Chloro-5-methyl-4-({5-[(4-methylbenzyl)oxy]pyridin-2-yl}oxy)phenyl]-1-(4-{4-[2-(4-methoxyphenoxy)ethyl]benzyl}piperazin-1-yl)prop-2-en-1-one hydrochloride] | < 10 | < 10 | < 10 | < 10 | < 10 |  |  | 225.1 to 226.6 | < 50 | < 50
5 | Cc1ccc(OCCc2ccc(CN3CCN(C(=O)/C=C/c4cc(C)c(Oc5ccc(OCc6ccc(Cl)cc6)cn5)c(Cl)c4)CC3)cc2)cc1.Cl [Example 777, (E)-3-[3-chloro-4-({5-[(4-chlorobenzyl)oxy]pyridin-2-yl}oxy)-5-methylphenyl]-1-(4-{4-[2-(4-methylphenoxy)ethyl]benzyl}piperazin-1-yl)prop-2-en-1-one hydrochloride] | < 10 | < 10 | < 10 | < 10 | < 10 | < 0.01 | < 0.01 | 220.1 to 220.3 | < 50 | < 50

Further lines, with some results ahead:

Row | IC50 [1] [nM] | IC50 [2] [nM] | IC50 [3] [nM] | IC50 [4] [nM] | IC50 [5] [nM] | IC50 [6] [µM] | IC50 [7] [µM] | melting point [°C] | Structure (SMILES) | response vs control in vivo at 10 mg/kg [8] [%] | response vs control in vivo at 10 mg/kg (PSA) [%]
6 | < 10 | < 10 | < 10 | < 10 | < 10 | < 0.01 | < 0.01 |  | Cc1ccc(COc2ccc(Oc3c(C)cc(/C=C/C(=O)N4CCN(Cc5ccc(CCOc6ccc(Cl)cc6)cc5)CC4)cc3Cl)nc2)cc1 [Example 408, (E)-3-[3-chloro-5-methyl-4-({5-[(4-methylbenzyl)oxy]pyridin-2-yl}oxy)phenyl]-1-(4-{4-[2-(4-chlorophenoxy)ethyl]benzyl}piperazin-1-yl)prop-2-en-1-one hydrochloride] | < 50 | < 50
7 | < 10 | < 10 | < 10 | < 10 | < 10 |  |  | 224.4 to 228.8 | Cc1cc(/C=C/C(=O)N2CCN(Cc3ccc(CCOc4ccc(F)cc4)cc3)CC2)cc(Cl)c1Oc1ccc(OCc2ccc(Cl)cc2)cn1.Cl [Example 429, (E)-3-[3-Chloro-4-({5-[(4-chlorobenzyl)oxy]pyridin-2-yl}oxy)-5-methylphenyl]-1-(4-{4-[2-(4-fluorophenoxy)ethyl]benzyl}piperazin-1-yl)prop-2-en-1-one hydrochloride] | < 50 | < 50
8 | < 10 | < 10 | < 10 | < 10 | < 10 | < 0.01 | < 0.01 | 227.1 to 227.2 | Cc1ccc(COc2ccc(Oc3c(C)cc(/C=C/C(=O)N4CCN(Cc5ccc(CCOc6ccc(F)cc6)cc5)CC4)cc3Cl)nc2)cc1.Cl [Example 430, (E)-3-[3-Chloro-5-methyl-4-({5-[(4-methylbenzyl)oxy]pyridin-2-yl}oxy)phenyl]-1-(4-{4-[2-(4-fluorophenoxy)ethyl]benzyl}piperazin-1-yl)prop-2-en-1-one hydrochloride] | < 50 | < 50
